Experimental data published in paper PMC6267684, “Pharmacokinetic evaluation of the PNC disassembler metarrestin in wild-type and Pdx1-Cre;LSL-Kras^G12D/+;Tp53^R172H/+ (KPC) mice, a genetically engineered model of pancreatic cancer” (Cancer Chemotherapy and Pharmacology, 2018).

Test system: FOXO6 mRNA
Experiment: FOXO6 mRNA expression in KPC tumors (RNA-seq, qRT-PCR)
Format: in vivo, KPC mice
Details: vs intratumor exposure
Procedure: Pancreas cancer tissues samples or adjacent, uninvolved normal pancreas from vehicle or metarrestin-treated KPC animals collected at 0, 3, and 9 h after last dose of 25 mg/kg metarrestin were homogenized in PureLink Lysis Buffer (PureLink RNA Mini Kit, ThermoFisher Scientific Waltham, MA) at 4 °C using a TissueLyser II bead mill (Qiagen, Valencia, CA, manufactured by Retsch, Newtown, PA). Total RNA was isolated using the Life Technologies PureLink® RNA Mini Kit, quantified on a NanoDrop 1000 spectrophotometer (ThermoFisher Scientific, Waltham, MA). […]
Total RNA libraries were prepared using the Illumina TruSeq® Stranded Total RNA LT (with Ribo-Zero™Human/Mouse/Rat) kit according the manufacturer’s instructions. […] Sequencing output ranged from 89 to 132 million reads per sample. Adapter trimming and base filtering was done using Trimmomatic software version 0.3, and the trimmed reads were aligned to mouse reference genome (GRCm38/mm10) and Ensembl annotation (version 70) using TopHat2 version 2.0.8.
A total of 450 ng of total RNA was used for single-strand complementary DNA synthesis using a SuperScript III First-Strand kit (Invitrogen, Carlsbad, CA). […] Reaction products were read in a Bio-Rad CFX96 Touch real-time PCR detection system (Bio-Rad Laboratories, Hercules, CA). […]

SMILES: N=c1c2c(-c3ccccc3)c(-c3ccccc3)n(Cc3ccccc3)c2ncn1[C@H]1CC[C@H](O)CC1 [metarrestin, Trans-4-(7-benzyl-4-imino-5,6-diphenyl-4,7-dihydro-3H-pyrrolo[2,3-d]pyrimidin-3-yl) cyclohexanol]
- FOXO6 mRNA expression in KPC tumors: Dose-dependent normalization
